Assay results reported in patent US20240336630A1, “MAP4K1 INHIBITORS” (Blueprint Medicines Corporation, priority 2021, published 2024).

Assays:
[1] = target: T1, MAP4K1 (HPK1) (Homo sapiens, UniProt Q92918); assay: Inhibition of MAP4K1 biochemical enzymatic activity (EZReader 2 electrophoretic mobility shift); conditions: HPK1 (Invitrogen), S6K2tide 1.5 μM, 120 min; ATP 26 μM or 1000 μM, not stated which for Table 3
T1 construct: purchased Invitrogen
From the text: MAP4K1 (HPK1) and relevant off-target enzymatic activity was monitored using the Perkin Elmer electrophoretic mobility shift technology platform—the EZReader 2. […] Within the linear, steady-state phase of the kinase enzymatic reaction, the mixed pool of phosphorylated (product) and non-phosphorylated (substrate) peptides was passed through the microfluidic system of the PerkinElmer EZ Reader 2, under an applied electric potential difference. The presence of the phosphate group on the product peptide provided a difference in mass and charge between that of the substrate peptide, resulting in a separation of the substrate and product pools in the sample (Perrin et al. 2010). As the product and substrate peptide mixture passes the lasers within the instrument, these pools are detected (λex=488 nm, λem=568 nm) and resolved as separate peaks. The ratio between these peaks reflects the activity of the compound at that concentration, in that well, under those conditions.
Inhibitors were dissolved in 100% DMSO at a stock concentration of 10 mM. A 100×, 10-point, 4-fold serial dilution of each inhibitor was created in 100% DMSO either manually or on a Hamilton STAR liquid handler, starting at a relevant concentration, usually 1 mM. A volume of 0.130 μL of each concentration was transferred to the relevant wells of a 384-well plate (Greiner 781 201) in duplicate using a TTPLabtech Mosquito nano-litre dispenser. Using a Multidrop Combi, the remaining constituents of the kinase reaction were added to the 130 nL of dosed compound as follows (see table below for final reaction details):
Enzyme activity assays at the ^APPKM for ATP or 1 mM ATP: In each well of a 384-well plate, 0.1-15 nM of untreated enzyme was incubated in a total of 13 μL of buffer (100 mM HEPES pH 7.5, 0.015% Brij 35, 10 mM MgCl2, 1 mM DTT) with 1.5 μM fluorescent peptide and 20-1000 μM ATP, at 25° C., for 60-180 minutes in the presence or absence of a dosed concentration series of compound (1% DMSO final concentration). The kinase reactions were stopped by the addition of 70 μl of Stop buffer (100 mM HEPES pH 7.5, 0.015% Brij 35, 35 mM EDTA and 0.2% of Coating Reagent 3 (Caliper Lifesciences)). The plates were read on a Caliper EZReader 2 as described above.

[2] = tested on: Primary T Cell (expanded CD3+ T cells); assay: T cell enhancement of cytokines: IL2 measurement (HTRF) in expanded CD3+ T cells stimulated with anti-CD3/anti-CD28; format: cell-based; conditions: Homo sapiens, plate-bound anti-CD3 and soluble anti-CD28, 24 h, read-out: IL-2 Primary T Cell EC50
Experimental: T cells are isolated from whole blood of healthy donors by immunomagnetic negative selection following manufacture's protocol (StemCell Technologies, human T cell isolation kit). Purity of isolated cells is assessed by flow cytometry and yields 95-98% CD3^+ T cells. For expansion of T cells, 1×10^6 cells/well are plated in serum free cell expansion media (ThermoFisher) containing 30U of recombinant human IL2 (R&D) and stimulated with 25 ul of CD3/CD28 beads (Invitrogen) in 24 well plates for 3-4 days. T cells are then expanded in 175 cm flasks and maintained at a cell density of 1 to 2.5×10^6 cells/ml days by addition of ⅔ of fresh media every 2-3 days. After 10-14 days, cells are frozen in BamBanker freezing media (Thermo) and stored in liquid nitrogen.
For IL2 measurement, expanded CD3^+ T cells are dispensed at 100K cells/well (cultured in X-VIVO 10 Serum-free media) and are stimulated with plate-bound anti-CD3 and soluble anti-CD28 in the presence of vehicle or compound of the disclosure at various concentrations for 24 h. As outlined in the manufacturer's protocol (Cisbio), 16 μL of conditioned media is transferred to a white 384-well low volume plate. Following a 24 h incubation with the anti-IL2 antibodies, the homogenous time resolved fluorescence (HTRF) is measured.

T1 sequence (Q92918 whole entry): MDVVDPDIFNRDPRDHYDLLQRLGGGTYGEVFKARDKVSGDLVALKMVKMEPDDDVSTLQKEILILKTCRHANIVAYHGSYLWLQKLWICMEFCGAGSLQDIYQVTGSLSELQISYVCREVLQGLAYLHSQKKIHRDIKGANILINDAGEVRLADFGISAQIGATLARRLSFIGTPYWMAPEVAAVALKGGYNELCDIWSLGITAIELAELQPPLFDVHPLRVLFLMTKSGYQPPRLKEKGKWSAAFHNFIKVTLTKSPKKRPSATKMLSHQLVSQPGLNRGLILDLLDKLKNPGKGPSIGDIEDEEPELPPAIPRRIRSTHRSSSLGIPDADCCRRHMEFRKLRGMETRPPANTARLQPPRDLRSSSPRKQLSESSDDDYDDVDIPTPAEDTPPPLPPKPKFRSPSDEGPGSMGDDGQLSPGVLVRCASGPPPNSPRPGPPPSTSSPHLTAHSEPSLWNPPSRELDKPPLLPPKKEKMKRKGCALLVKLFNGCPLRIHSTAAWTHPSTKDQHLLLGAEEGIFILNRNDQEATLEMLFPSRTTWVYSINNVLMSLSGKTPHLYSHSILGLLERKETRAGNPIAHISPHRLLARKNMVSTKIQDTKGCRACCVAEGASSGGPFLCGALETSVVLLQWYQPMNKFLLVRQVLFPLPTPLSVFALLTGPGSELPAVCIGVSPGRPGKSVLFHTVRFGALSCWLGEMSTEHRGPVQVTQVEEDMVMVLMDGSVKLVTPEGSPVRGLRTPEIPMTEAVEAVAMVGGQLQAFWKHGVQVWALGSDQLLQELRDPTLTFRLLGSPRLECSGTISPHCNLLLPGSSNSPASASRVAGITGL

IC50 [1] [nM]	EC50 [2] [nM]	Structure (SMILES)
0.29	65	C[C@@H]1c2nc(Nc3cc4c(C(C)(C)O)cnc(O[C@H]5C[C@@H](S(C)(=O)=O)C5)c4cn3)ccc2C(=O)OC1(C)C [Compound 60]
0.39		CC[C@@](C)(O)c1cnc(O[C@H]2C[C@@H](S(C)(=O)=O)C2)c2cnc(Nc3ccc4c(n3)[C@@H](C)C(C)(C)OC4=O)cc12 (single isomer, unassigned) [Compound 65]
1.74		CC[C@@](C)(O)c1cnc(O[C@H]2C[C@@H](S(C)(=O)=O)C2)c2cnc(Nc3ccc4c(n3)[C@@H](C)C(C)(C)OC4=O)cc12 (single isomer, unassigned) [Compound 66]
1.91		CC(=O)N1CC(Oc2ncc(C(C)(C)O)c3cc(Nc4ccc5c(n4)[C@@H](C)[C@H](C)OC5=O)ncc23)C1 [Compound 45]
12.9		CC[C@H](O)c1cnc(OC2CN(S(C)(=O)=O)C2)c2cnc(Nc3ccc4c(n3)[C@@H](C)[C@H](C)OC4=O)cc12 (single isomer, unassigned) [Compound 59]
3.86		COC[C@@](C)(O)c1cnc(OC2CC2)c2cnc(Nc3ccc4c(n3)[C@@H](C)[C@H](C)OC4=O)cc12 (single isomer, unassigned) [Compound 36]
2.53	132	CC[C@](C)(O)c1cnc(OC2CC2)c2cnc(Nc3ccc4c(n3)C(C)(C)[C@@H](C)OC4=O)cc12 [Compound 34]
0.39	23	CC[C@@](C)(O)c1cnc(O[C@H]2C[C@@H](S(C)(=O)=O)C2)c2cnc(Nc3ccc4c(n3)[C@@H](C)[C@H](C)OC4=O)cc12 (single isomer, unassigned) [Compound 61]
0.41		CC[C@@](C)(O)c1cnc(O[C@H](C)C[C@@H](C)S(C)(=O)=O)c2cnc(Nc3ccc4c(n3)[C@@H](C)[C@H](C)OC4=O)cc12 (single isomer, unassigned) [Compound 68]
1.66		CC[C@@](C)(O)c1cnc(O[C@H]2C[C@@H](S(C)(=O)=O)C2)c2cnc(Nc3ccc4c(n3)[C@@H](C)[C@H](C)OC4=O)cc12 (single isomer, unassigned) [Compound 62]
0.42	47	CC[C@@](C)(O)c1cnc(OC2CC2)c2cnc(Nc3ccc4c(n3)[C@@H](C)C(C)(C)OC4=O)cc12 (single isomer, unassigned) [Compound 31]

Further lines, the compound ahead of its results:

Structure (SMILES)	IC50 [1] [nM]	EC50 [2] [nM]
CC[C@](C)(O)c1cnc(OC2CC2)c2cnc(Nc3ccc4c(n3)C3(CC3)[C@@H](C)OC4=O)cc12 (single isomer, unassigned) [Compound 27]	1.7	42
COc1ncc(C(C)(C)O)c2cc(Nc3cnc(C#N)c(C(C)C)n3)ncc12 [Compound 7]	17.5	
CC1(C)Cc2nc(Nc3cc4c(C(C)(O)c5ccccc5)cnc(OC5CC5)c4cn3)ccc2C(=O)O1 (stereo not shown) [Compound 46]	31.9	
CC[C@@](C)(O)c1cnc(O[C@H](C)C[C@@H](C)S(C)(=O)=O)c2cnc(Nc3ccc4c(n3)[C@@H](C)C(C)(C)OC4=O)cc12 (single isomer, unassigned) [Compound 69]	0.89	
CCOc1ncc([C@@](C)(O)C2CC2)c2cc(Nc3ccc4c(n3)[C@@H](C)C(C)(C)OC4=O)ncc12 (single isomer, unassigned) [Compound 32]	15.5	
CC[C@@H](O)c1cnc(OC2CN(S(C)(=O)=O)C2)c2cnc(Nc3ccc4c(n3)[C@@H](C)C(C)(C)OC4=O)cc12 (single isomer, unassigned) [Compound 63]	2.94	
COc1ncc(C(C)(C)O)c2cc(Nc3cnc(C#N)c(N4CCC[C@@H]4C)n3)ncc12 [Compound 13]	6.36	
CC[C@](C)(O)c1cnc(OC2CC2)c2cnc(Nc3ccc4c(n3)C3(CC3)C(C)(C)OC4=O)cc12 (single isomer, unassigned) [Compound 40]	2.09	169
CCOc1ncc([C@@](C)(O)C2CC2)c2cc(Nc3ccc4c(n3)[C@@H](C)C(C)(C)OC4=O)ncc12 (single isomer, unassigned) [Compound 33]	0.56	
CC[C@](C)(O)c1cnc(OC2CC2)c2cnc(Nc3ccc4c(n3)C3(CC3)C(C)(C)OC4=O)cc12 (single isomer, unassigned) [Compound 41]	6.55	
COc1ncc(C(C)(C)O)c2cc(Nc3ccnc(C(C)(C)C)n3)ncc12 [Compound 4]	2.34	
COc1ncc(C(C)(C)O)c2cc(Nc3ccnc(C(C)(C)F)n3)ncc12 [Compound 6]	9.23	
CC[C@@](C)(O)c1cnc(O[C@H](C)C[C@@H](C)S(C)(=O)=O)c2cnc(Nc3ccc4c(n3)[C@@H](C)C(C)(C)OC4=O)cc12 (single isomer, unassigned) [Compound 70]	0.49	
CC1(C)Cc2nc(Nc3cc4c(C5(O)CCOCC5)cnc(OC5CC5)c4cn3)ccc2C(=O)O1 [Compound 42]	3.38	
CC[C@@H](O)c1cnc(OC2CN(S(C)(=O)=O)C2)c2cnc(Nc3ccc4c(n3)[C@@H](C)C(C)(C)OC4=O)cc12 (single isomer, unassigned) [Compound 64]	0.67	
CC1(C)CCc2nc(Nc3cc4c(C(C)(C)O)cnc(OC5CC5)c4cn3)ccc2C(=O)O1 [Compound 22]	23.6	
CC[C@@](C)(O)c1cnc(OCC(F)(F)F)c2cnc(Nc3ccc4c(n3)[C@@H](C)C(C)(C)OC4=O)cc12 (single isomer, unassigned) [Compound 52]	23.2	
